Reference: ChEMBL document CHEMBL5380800, “Discovery of Small-Molecule Autophagy Inhibitors by Disrupting the Protein-Protein Interactions Involving Autophagy-Related 5” (J Med Chem, 2023)
Active and inactive are the calls of the source. No cut-off for these calls is given here.

Columns and labels:
[1] = tested on: U-937; assay: Downregulation of LC3-II protein level in human U-937 cells at 5 to 40 uM incubated for 6 hrs in presence of rapamycin/chloroquine by Western blot analysis; assay type: functional, cell-based; details: dose 5-40 µM
[2] = Inhibition of ATG5-TECAIR (unknown origin) protein protein interaction expressed in Escherichia coli BL21 (DE3) by HTRF method; set-up: species or system Homo sapiens; details: read-out: IC50
[3] = tested on: COS-7; assay: Downregulation of LC3-II protein level in African green monkey COS-7 cells at 1.25 to 20 uM incubated for 6 hrs by Western blot analysis; assay type: functional, cell-based; details: Chlorocebus aethiops, dose 1.25-20 µM
[4] = Inhibition of ATG5-ATG16L1 (unknown origin) protein protein interaction expressed in Escherichia coli BL21 (DE3) by HTRF method; set-up: species or system Homo sapiens; details: read-out: IC50
[5] = tested on: THP-1; assay: Downregulation of LC3-II protein level in human THP-1 cells at 5 to 40 uM incubated for 6 hrs in presence of rapamycin/chloroquine by Western blot analysis; assay type: functional, cell-based; details: dose 5-40 µM
[6] = tested on: COS-7; assay: Inhibition of autophagy in African green monkey COS-7 cells assessed as effect on LC3 level by flow cytometry analysis; assay type: toxicity, cell-based; details: chlorocebus aethiops, cos-7, 40 µM
[7] = tested on: COS-7; assay: Inhibition of autophagy in African green monkey COS-7 cells at 20 uM by flow cytometry analysis relative to control; assay type: functional; details: Chlorocebus aethiops

IC50 [2]: 1700 nM
IC50 [4]: 1100 nM
Compound: O=C(O)c1ccc(N2C(=O)/C(=C/c3ccc(-c4ccc([N+](=O)[O-])cc4)o3)C=C2c2ccccc2)cc1
Activity [1]: Active
Activity [3]: Active
Activity [5]: Active
inhibition (INH) [6]: Dose-Dependent Effect
inhibition at 20 µM [7]: 7.16%
